Source: article PMC13065040 (PLOS One, 2026)
Entries after “also recorded” stand apart in the source; their conditions may differ.

Molecular target: T1, MMP-2 (Homo sapiens, UniProt P08253)
T1 construct: purchased Enzo Life Sciences (MMP-2 drug discovery kit)
Assay: MMP-2 inhibition assay (Enzo kit, OmniMMP RED fluorogenic substrate)
Format: biochemical
Experimental: The MMP-2 inhibition assay was performed using the Enzo Life Sciences MMP-2 drug discovery kit. and the quenched fluorogenic substrate OmniMMP RED. Reference substrate was diluted to a final concentration of 5 μM, while the MMP-2 enzyme was diluted to 58 mU/µL, and the N-Isobutyl-N-(4-methoxyphenylsulfonyl)glycyl hydroxamic acid (NNGH) inhibitor was diluted to a concentration of 1/200 in assay buffer. […] The assay was performed using a black 96-well microplate. Fluorescence was measured at excitation/emission wavelengths of 545/576 nm, with a cutoff at 570 nm using Gen5 microplate reader (BioTeK, Shoreline, WA). Baseline fluorescence was recorded before adding NNGH inhibitor which was used as a positive control for MMP-2 inhibition. Reaction mixtures in the plate were incubated at 37 °C for 10 min, and fluorescence was measured at 10 min intervals for the first 30 min, then at 30 min intervals until 2 h had elapsed. […] Statistical analysis was performed using ANOVA with GraphPad Prism software, version 10.0.3.

T1 sequence (P08253 110-465 limits assumed): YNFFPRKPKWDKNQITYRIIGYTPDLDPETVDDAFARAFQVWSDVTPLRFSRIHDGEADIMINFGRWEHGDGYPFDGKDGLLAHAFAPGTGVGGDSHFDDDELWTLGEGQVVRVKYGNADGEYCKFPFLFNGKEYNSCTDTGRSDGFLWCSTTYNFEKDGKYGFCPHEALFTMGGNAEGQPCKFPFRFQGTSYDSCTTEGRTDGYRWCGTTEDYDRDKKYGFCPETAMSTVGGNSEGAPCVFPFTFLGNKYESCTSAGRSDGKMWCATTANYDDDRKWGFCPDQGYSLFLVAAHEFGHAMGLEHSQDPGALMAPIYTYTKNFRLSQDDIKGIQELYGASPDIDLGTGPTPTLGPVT

Substance: Chlorotoxin [Ctx]
- MMP-2 enzymatic activity, percent of control (Ctx 1 µM, replicate 1): 118.933
- MMP-2 enzymatic activity, percent of control (Ctx 1 µM, replicate 2): 112.076
- MMP-2 enzymatic activity, percent of control (Ctx 1 µM, replicate 3): 102.494
- MMP-2 enzymatic activity, percent of control (Ctx 1 µM, replicate 4): 91.6233
- MMP-2 enzymatic activity, percent of control (Ctx 1 µM, replicate 5): 88.1016
- MMP-2 enzymatic activity, percent of control (Ctx 1 µM, replicate 6): 107.77
- MMP-2 enzymatic activity, percent of control (Ctx 1 µM, replicate 7): 112.009
- MMP-2 enzymatic activity, percent of control (Ctx 1 µM, replicate 8): 115.93
- MMP-2 enzymatic activity, percent of control (Ctx 5 µM, replicate 1): 109.471
- MMP-2 enzymatic activity, percent of control (Ctx 5 µM, replicate 2): 117.657
- MMP-2 enzymatic activity, percent of control (Ctx 5 µM, replicate 3): 107.159
- MMP-2 enzymatic activity, percent of control (Ctx 5 µM, replicate 4): 113.75
- MMP-2 enzymatic activity, percent of control (Ctx 5 µM, replicate 5): 100.089
- MMP-2 enzymatic activity, percent of control (Ctx 5 µM, replicate 6): 108.86
- MMP-2 enzymatic activity, percent of control (Ctx 5 µM, replicate 7): 121.511
- MMP-2 enzymatic activity, percent of control (Ctx 5 µM, replicate 8): 108.966
- MMP-2 enzymatic activity, percent of control (Ctx 10 µM, replicate 1): 86.2677
- MMP-2 enzymatic activity, percent of control (Ctx 10 µM, replicate 2): 99.1052
- MMP-2 enzymatic activity, percent of control (Ctx 10 µM, replicate 3): 97.4706
- MMP-2 enzymatic activity, percent of control (Ctx 10 µM, replicate 4): 94.5071
- MMP-2 enzymatic activity, percent of control (Ctx 10 µM, replicate 5): 60.0877
- MMP-2 enzymatic activity, percent of control (Ctx 10 µM, replicate 6): 92.3409
- MMP-2 enzymatic activity, percent of control (Ctx 10 µM, replicate 7): 113.684
- MMP-2 enzymatic activity, percent of control (Ctx 10 µM, replicate 8): 106.8
- MMP-2 enzymatic activity, percent of control (Ctx 15 µM, replicate 1): 86.879
- MMP-2 enzymatic activity, percent of control (Ctx 15 µM, replicate 2): 110.627
- MMP-2 enzymatic activity, percent of control (Ctx 15 µM, replicate 3): 103.344
- MMP-2 enzymatic activity, percent of control (Ctx 15 µM, replicate 4): 104.062
- MMP-2 enzymatic activity, percent of control (Ctx 15 µM, replicate 5): 43.5824
- MMP-2 enzymatic activity, percent of control (Ctx 15 µM, replicate 6): 117.856
- MMP-2 enzymatic activity, percent of control (Ctx 15 µM, replicate 7): 126.92
- MMP-2 enzymatic activity, percent of control (Ctx 15 µM, replicate 8): 120.528
- MMP-2 enzymatic activity, percent of control (Ctx 20 µM, replicate 1): 134.561
- MMP-2 enzymatic activity, percent of control (Ctx 20 µM, replicate 2): 108.926
- MMP-2 enzymatic activity, percent of control (Ctx 20 µM, replicate 3): 139.252
- MMP-2 enzymatic activity, percent of control (Ctx 20 µM, replicate 4): 98.6135
- MMP-2 enzymatic activity, percent of control (Ctx 20 µM, replicate 5): 53.8949
- MMP-2 enzymatic activity, percent of control (Ctx 20 µM, replicate 6): 135.226
- MMP-2 enzymatic activity, percent of control (Ctx 20 µM, replicate 7): 133.352
- MMP-2 enzymatic activity, percent of control (Ctx 20 µM, replicate 8): 121.591
- inhibition of MMP-2 enzymatic activity (Fig 10A) (Ctx at 1, 5, 10, 15 and 20 µM, compared to control inhibitor): did not inhibit; also recorded: not statistically significant
- inhibition of MMP-2 enzymatic activity (Fig 10B) (peptides at 1 µM, 50 µM and 100 µM, one-way ANOVA vs control): not statistically significant
